Data set [1] can be described thus: Hygroscopicity measurement (weight gain). The format is physicochemical. The settings on record: 25±1° C., relative humidity 80±2%, 24 hours. On the procedure:
The method for measuring the hygroscopicity may include: placing a certain amount of a sample to be tested into a precisely weighed glass weighing bottle (m1) with a plug and precisely weighing (m2); placing the opened weighing bottle into a thermostatic dryer (with saturated ammonium sulfate solution placed at the bottom, with a relative humidity of 80±2%) at 25±1° C. for 24 hours; covering the weighing bottle with the plug and precisely weighing (m3), and calculating the percent of weight gain of the sample to be tested according to the following equation: […]
The measurement method includes: placing a certain amount of sample to be tested into a precisely weighed glass weighing bottle (m1) with a plug and precisely weighing (m2); placing the opened weighing bottle in a thermostated dryer (with saturated ammonium sulfate solution placed at the bottom, with a relative humidity of 80±2%) at 25±1° C. for 24 hours; covering the weighing bottle with the plug and precisely weighing (m3).
Characterization of the hygroscopicity and definition of the hygroscopic weight gain:
Deliquescence: sufficient moisture was absorbed to form liquid;
Slight hygroscopicity: hygroscopic weight gain was less than 2% and not less than 0.2%: […]

The nature of data set [2]: Solubility in water by HPLC. The format is physicochemical. To be noted: purified water, 25° C.; for solubility at 30 min: thermodynamic from solid. Here is the method: Liquid chromatograph: Agilent 1200 HPLC system (diode array detector), ChemStation
Mobile phase: acetonitrile/water
Detection wavelength: 264 nm
About 100 mg sample to be tested was precisely weighed and placed into a 100 ml graduated flask at 25° C.; an appropriate amount of solvent [acetonitrile/water (80:20)] was added to dissolve the sample under ultrasonic sound, and the solution was diluted to a given scale and shaken up; 10 μl resulting solution was precisely measured and loaded into the liquid chromatograph, the chromatogram was recorded, and the peak area Scontrol was measured.
10 ml purified water was measured and placed into a 25 ml Kjeldahl flask. The sample to be tested was gradually added at 25° C. until an insoluble solid appeared in the solution. The solution was treated under ultrasonic sound for 30 min and the insoluble solid was filtered off. 10 μl filtrate was precisely weighed and loaded into the liquid chromatograph, the chromatogram was recorded, and the peak area Stest was measured.

Data set [3] can be described thus: Plasma exposure (AUC) in rats after gavage administration. The class given is in vivo. To be noted: rat, po, male SD rats, 10 mg/kg (based on pharmaceutically active compound), salts dissolved in pure water, active compound as suspension in 0.5% CMC, up to 24 h. On the procedure: Laboratory animal: male SD rats
Dosage: 10 mg/kg (based on pharmaceutically active compound)
Formulation for salts: dissolving in pure water
Formulation for pharmaceutically active compound: suspension in CMC (carboxymethylcellulose), 0.5%
Animal Grouping and Testing Course:
Each group includes three male rats having a weight of 180 to 210 g. Gavage administration was performed; the blood was collected at point of time: 5 min, 15 min, 30 min, 45 min, 1 h, 2 h, 4 h, 6 h, 10 h and 24 h; about 250 μl blood was collected from orbital venous plexus into a heparin-containing tube, centrifuged, and 100 μl plasma was used for LC-MS analysis.

Take `CC(=O)O.CCN(CC)CCNC(=O)c1c(C)[nH]c2c1CCC/C2=C1/C(=O)Nc2ccc(F)cc21` [Acetate, (Z)—N-[2-(diethylamino)ethyl]-2-methyl-7-(1,2-dihydro-5-fluoro-2-oxo-3H-indol-3-ylidene)-4,5,6,7-tetrahydro-1H-indol-3-carboxamide acetate]: in data set [1], the Hygroscopicity entry is “Strong hygroscopicity (hygroscopic weight gain was not less than 15%)”. In addition, the solubility at 30 min in data set [2] amounted to 30.7 mg/mL.

As to `CCN(CC)CCNC(=O)c1c(C)[nH]c2c1CCC/C2=C1/C(=O)Nc2ccc(F)cc21.O=S(=O)(O)c1ccccc1` [Benzenesulfonate, (Z)—N-[2-(diethylamino)ethyl]-2-methyl-7-(1,2-dihydro-5-fluoro-2-oxo-3H-indol-3-ylidene)-4,5,6,7-tetrahydro-1H-indol-3-carboxamide benzenesulfonate], the Hygroscopicity entry in data set [1] was “Hygroscopicity (hygroscopic weight gain was less than 15% and not less than 2%)”. In data set [2], this compound registered a solubility at 30 min of 19.2 mg/mL.

Turning to `CCN(CC)CCNC(=O)c1c(C)[nH]c2c1CCC/C2=C1/C(=O)Nc2ccc(F)cc21.O=C(O)CC(O)(CC(=O)O)C(=O)O` [Citrate, (Z)—N-[2-(diethylamino)ethyl]-2-methyl-7-(1,2-dihydro-5-fluoro-2-oxo-3H-indol-3-ylidene)-4,5,6,7-tetrahydro-1H-indol-3-carboxamide citrate], the Hygroscopicity result in data set [1] was “Slight hygroscopicity (hygroscopic weight gain was less than 2% and not less than 0.2%)”. Moreover, in data set [2], the solubility at 30 min worked out at 38.2 mg/mL. The AUC(0-t) in data set [3] was determined as 838 ng·h/mL.

With `CCN(CC)CCNC(=O)c1c(C)[nH]c2c1CCC/C2=C1/C(=O)Nc2ccc(F)cc21.O=C(O)/C=C/C(=O)O` [Fumarate, (Z)—N-[2-(diethylamino)ethyl]-2-methyl-7-(1,2-dihydro-5-fluoro-2-oxo-3H-indol-3-ylidene)-4,5,6,7-tetrahydro-1H-indol-3-carboxamide fumarate], in data set [1], the Hygroscopicity result was “Slight hygroscopicity (hygroscopic weight gain was less than 2% and not less than 0.2%)”. In data set [2], this compound gave a solubility at 30 min of 0.0168 mg/mL.

Consider `Br.CCN(CC)CCNC(=O)c1c(C)[nH]c2c1CCC/C2=C1/C(=O)Nc2ccc(F)cc21` [Hydrobromate, (Z)—N-[2-(diethylamino)ethyl]-2-methyl-7-(1,2-dihydro-5-fluoro-2-oxo-3H-indol-3-ylidene)-4,5,6,7-tetrahydro-1H-indol-3-carboxamide hydrobromate], for which the Hygroscopicity result in data set [1] was “Almost no hygroscopicity”. For the same compound, the “Solubility in Water” value in data set [2] is 3.5922 mg/mL.

Turning to `CCN(CC)CCNC(=O)c1c(C)[nH]c2c1CCC/C2=C1/C(=O)Nc2ccc(F)cc21.Cl` [Hydrochloride, (Z)—N-[2-(diethylamino)ethyl]-2-methyl-7-(1,2-dihydro-5-fluoro-2-oxo-3H-indol-3-ylidene)-4,5,6,7-tetrahydro-1H-indol-3-carboxamide hydrochloride], the Hygroscopicity result in data set [1] is “Almost no hygroscopicity”. Besides, in data set [2], the solubility at 30 min turned out to be 22.8 mg/mL. Also, the AUC(0-t) in data set [3] stood at 185 ng·h/mL.

Regarding `CCN(CC)CCNC(=O)c1c(C)[nH]c2c1CCC/C2=C1/C(=O)Nc2ccc(F)cc21.O=C(O)C(O)C(O)C(=O)O` [L-tartrate, (Z)—N-[2-(diethylamino)ethyl]-2-methyl-7-(1,2-dihydro-5-fluoro-2-oxo-3H-indol-3-ylidene)-4,5,6,7-tetrahydro-1H-indol-3-carboxamide L-tartrate], the Hygroscopicity entry in data set [1] is “Slight hygroscopicity (hygroscopic weight gain was less than 2% and not less than 0.2%)”. In addition, the concentration in solution in data set [2] (solubility at 30 min) was 10.6 mg/mL.

Consider `CC(O)C(=O)O.CCN(CC)CCNC(=O)c1c(C)[nH]c2c1CCC/C2=C1/C(=O)Nc2ccc(F)cc21` [Lactate, (Z)—N-[2-(diethylamino)ethyl]-2-methyl-7-(1,2-dihydro-5-fluoro-2-oxo-3H-indol-3-ylidene)-4,5,6,7-tetrahydro-1H-indol-3-carboxamide lactate], for which the Hygroscopicity result in data set [1] was “Hygroscopicity (hygroscopic weight gain was less than 15% and not less than 2%)”. The solubility at 30 min in data set [2] stood at 24 mg/mL. Further, the exposure AUC(0-t) in data set [3] was determined as 652 ng·h/mL.

In the case of `CCN(CC)CCNC(=O)c1c(C)[nH]c2c1CCC/C2=C1/C(=O)Nc2ccc(F)cc21.O=C(O)/C=C\C(=O)O` [Maleate, (Z)—N-[2-(diethylamino)ethyl]-2-methyl-7-(1,2-dihydro-5-fluoro-2-oxo-3H-indol-3-ylidene)-4,5,6,7-tetrahydro-1H-indol-3-carboxamide maleate], the Hygroscopicity entry in data set [1] was “Slight hygroscopicity (hygroscopic weight gain was less than 2% and not less than 0.2%)”. In data set [2], the solubility at 30 min was found to be 1.32 mg/mL.

For the compound `CCN(CC)CCNC(=O)c1c(C)[nH]c2c1CCC/C2=C1/C(=O)Nc2ccc(F)cc21.CS(=O)(=O)O` [Methanesulfonate, (Z)—N-[2-(diethylamino)ethyl]-2-methyl-7-(1,2-dihydro-5-fluoro-2-oxo-3H-indol-3-ylidene)-4,5,6,7-tetrahydro-1H-indol-3-carboxamide methanesulfonate], in data set [1], the Hygroscopicity entry is given as “Strong hygroscopicity (hygroscopic weight gain was not less than 15%)”. The compound also registered a solubility at 30 min in data set [2] of 12.3 mg/mL.

For the compound `CCN(CC)CCNC(=O)c1c(C)[nH]c2c1CCC/C2=C1/C(=O)Nc2ccc(F)cc21.Cc1ccc(S(=O)(=O)O)cc1` [P-toluenesulfonate, (Z)—N-[2-(diethylamino)ethyl]-2-methyl-7-(1,2-dihydro-5-fluoro-2-oxo-3H-indol-3-ylidene)-4,5,6,7-tetrahydro-1H-indol-3-carboxamide p-toluenesulfonate], the Hygroscopicity entry in data set [1] was “Slight hygroscopicity (hygroscopic weight gain was less than 2% and not less than 0.2%)”. In data set [2], this compound yielded a solubility at 30 min of 0.419 mg/mL.

Take `CCN(CC)CCNC(=O)c1c(C)[nH]c2c1CCC/C2=C1/C(=O)Nc2ccc(F)cc21.O=P(O)(O)O` [Phosphate, (Z)—N-[2-(diethylamino)ethyl]-2-methyl-7-(1,2-dihydro-5-fluoro-2-oxo-3H-indol-3-ylidene)-4,5,6,7-tetrahydro-1H-indol-3-carboxamide phosphate]: in data set [1], the Hygroscopicity result was “Slight hygroscopicity (hygroscopic weight gain was less than 2% and not less than 0.2%)”. The compound also yielded a solubility at 30 min in data set [2] of 29.7 mg/mL. In addition, in data set [3], the AUC(0-t) turned out to be 322 ng·h/mL.

As for `CCN(CC)CCNC(=O)c1c(C)[nH]c2c1CCC/C2=C1/C(=O)Nc2ccc(F)cc21.O=C(O)CCC(=O)O` [Succinate, (Z)—N-[2-(diethylamino)ethyl]-2-methyl-7-(1,2-dihydro-5-fluoro-2-oxo-3H-indol-3-ylidene)-4,5,6,7-tetrahydro-1H-indol-3-carboxamide succinate], the Hygroscopicity result in data set [1] was “Slight hygroscopicity (hygroscopic weight gain was less than 2% and not less than 0.2%)”. The solubility at 30 min in data set [2] was found to be 13.4 mg/mL.

On to `CCN(CC)CCNC(=O)c1c(C)[nH]c2c1CCC/C2=C1/C(=O)Nc2ccc(F)cc21.O=S(=O)(O)O` [Sulfate, (Z)—N-[2-(diethylamino)ethyl]-2-methyl-7-(1,2-dihydro-5-fluoro-2-oxo-3H-indol-3-ylidene)-4,5,6,7-tetrahydro-1H-indol-3-carboxamide sulfate], for which the Hygroscopicity entry in data set [1] was “Slight hygroscopicity (hygroscopic weight gain was less than 2% and not less than 0.2%)”. Further, the solubility at 30 min in data set [2] came to 0.236 mg/mL.

On to “(Z)—N-[2-(diethylamino)ethyl]-2-methyl-7-(1,2-dihydro-5-fluoro-2-oxo-3H-indol-3-ylidene)-4,5,6,7-tetrahydro-1H-indol-3-carboxamide L-mandelate”, for which the Hygroscopicity entry in data set [1] was “Hygroscopicity (hygroscopic weight gain was less than 15% and not less than 2%)”. For the same compound, the “Solubility in Water” value in data set [2] came to 14.7218 mg/mL.

By solubility is commonly meant the concentration that dissolves in the medium under given conditions. Low readings indicate little dissolved substance, high ones much dissolved substance. As a reminder, the AUC(0-t) is exposure summed from dosing to a finite time, without extrapolation to infinity.

(Values after patent US9018242B2, “Salt form of tyrosine kinase inhibitor” (Jiangsu Simcere Pharmaceutical R&D Co., Ltd, priority 2011, dated 2015).)
